Experimental data from patent publication US9403756B2, “N-phenyl anthranilic acid derivatives and uses thereof” (Ramot at Tel-Aviv University Ltd., priority 2007, dated 2016).

What was measured:
Format in all cases: cell-based
KCNQ2 mutant S121A = biological target: T1, KCNQ2 mutant S121A (Homo sapiens, UniProt O43526, S121A); experiment: KCNQ2 S1-S2 mutant S121A in CHO cells; details: 25 μM NH29
T1 construct: expressed in transfected cells; host or cells: CHO cells
Text: (§1) FIGS. 12A-F present the potentiating effect of NH29, an exemplary channel opener compound according to embodiments of the present invention, on selected KCNQ2 mutants. Shown are bar diagrams comparing the potentiating effect of NH29 on native KCNQ2 and KCNQ2 mutants, wherein the mutated amino acids are located at the S1-S2 helix region (FIG. 12A) or S4 helix region (FIG. 12D) and wherein the opener effect is expressed as percent of the control current in the absence of the opener. For comparison, marked as a green line, is the observed current increase of native KCNQ2 by NH29. FIGS. 12B 12C, 12E and 12F present representative traces recorded from CHO cell transfected with the KCNQ2 mutant S122A, S121A, L206C and R201A respectively, before and after external application of 25 μM of NH29 and wherein the membrane potential was stepped from −90 mV holding potential to −40 mV for 1.5 seconds pulse duration.
(§2) Voltage-clamp recordings in CHO cells were performed, using the whole-cell configuration of the patch-clamp technique. Signals were amplified using an Axopatch 200B patch-clamp amplifier (Molecular Devices, Sunnyvale, Calif.), sampled at 2 kHz and filtered at 800 Hz via a 4-pole Bessel low pass filter. […] Series resistances (3-13 MΩ) were compensated (75-90%) and periodically monitored.

TRPV1 channel = biological target: T2, TRPV1 channel (Homo sapiens, UniProt Q8NER1); experiment: TRPV1 currents in transfected CHO cells activated with capsaicin; details: 0.5 μM capsaicin
T2 construct: expressed in transfected cells; host or cells: CHO cells
T2 sequence (Q8NER1 whole entry): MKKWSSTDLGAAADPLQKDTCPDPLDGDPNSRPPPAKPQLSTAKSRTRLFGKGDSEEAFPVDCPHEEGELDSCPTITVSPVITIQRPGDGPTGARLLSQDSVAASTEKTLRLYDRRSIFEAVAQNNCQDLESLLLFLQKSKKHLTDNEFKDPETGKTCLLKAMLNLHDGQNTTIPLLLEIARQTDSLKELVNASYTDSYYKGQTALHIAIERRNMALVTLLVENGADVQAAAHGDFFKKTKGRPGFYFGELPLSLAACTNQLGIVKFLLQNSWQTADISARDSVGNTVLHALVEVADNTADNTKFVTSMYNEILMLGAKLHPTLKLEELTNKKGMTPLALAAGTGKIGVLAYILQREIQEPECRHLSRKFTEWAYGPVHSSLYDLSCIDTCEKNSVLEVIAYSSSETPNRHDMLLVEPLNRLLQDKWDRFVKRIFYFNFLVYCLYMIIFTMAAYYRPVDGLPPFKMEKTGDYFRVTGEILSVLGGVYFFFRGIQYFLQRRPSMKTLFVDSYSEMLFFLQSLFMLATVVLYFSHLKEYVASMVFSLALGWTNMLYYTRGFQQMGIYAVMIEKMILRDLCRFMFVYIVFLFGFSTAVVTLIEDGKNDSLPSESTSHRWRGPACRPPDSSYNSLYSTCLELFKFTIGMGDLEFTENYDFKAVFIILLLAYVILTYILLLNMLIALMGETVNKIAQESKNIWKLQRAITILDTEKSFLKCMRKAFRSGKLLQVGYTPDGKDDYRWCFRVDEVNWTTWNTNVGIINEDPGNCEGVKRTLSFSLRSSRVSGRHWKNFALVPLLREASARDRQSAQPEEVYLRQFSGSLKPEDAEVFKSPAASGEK
Procedure: Chinese hamster ovary (CHO) cells were grown in Dulbecco's modified Eagle's medium (DMEM) supplemented with 2 mM glutamine, 10% fetal calf serum and antibiotics. Briefly, 40,000 cells seeded on poly-D-lysine-coated glass coverslips (13 mm diameter) in a 24-multiwell plate were transfected with pIRES-CD8 (0.5 μg) as a marker for transfection, and with Kv7.2 (0.5 μg) and Kv7.3 (0.5 μg) or TRPV1 […] or TRPV6 […].
For electrophysiology, transfected cells were visualized approximately 40 hours following transfection, using anti-CD8 antibody-coated beads. Transfection was performed using Fugene 6 (Roche, Indianapolis Ind., USA) according to the manufacturer's protocol.
as §2, with “filter. Data were acquired using pClamp 9.2 software (Molecular Devices) and an IBM compatible Pentium IV computer in conjunction with a DigiData 1322A interface (Molecular Devices). The patch pipettes were pulled from borosilicate glass (Warner Instrument Corp, USA) with a resistance of 2-5 MΩ.” for “filter.”, “monitored. […]” for “monitored.”

KCNQ2 mutant Y118S = biological target: T3, KCNQ2 mutant Y118S (Homo sapiens, UniProt O43526, Y118S); experiment: KCNQ2 mutant Y118S; details: 25 μM NH29
T3 construct: expressed in transfected cells
T3 sequence (O43526 whole entry Y118S): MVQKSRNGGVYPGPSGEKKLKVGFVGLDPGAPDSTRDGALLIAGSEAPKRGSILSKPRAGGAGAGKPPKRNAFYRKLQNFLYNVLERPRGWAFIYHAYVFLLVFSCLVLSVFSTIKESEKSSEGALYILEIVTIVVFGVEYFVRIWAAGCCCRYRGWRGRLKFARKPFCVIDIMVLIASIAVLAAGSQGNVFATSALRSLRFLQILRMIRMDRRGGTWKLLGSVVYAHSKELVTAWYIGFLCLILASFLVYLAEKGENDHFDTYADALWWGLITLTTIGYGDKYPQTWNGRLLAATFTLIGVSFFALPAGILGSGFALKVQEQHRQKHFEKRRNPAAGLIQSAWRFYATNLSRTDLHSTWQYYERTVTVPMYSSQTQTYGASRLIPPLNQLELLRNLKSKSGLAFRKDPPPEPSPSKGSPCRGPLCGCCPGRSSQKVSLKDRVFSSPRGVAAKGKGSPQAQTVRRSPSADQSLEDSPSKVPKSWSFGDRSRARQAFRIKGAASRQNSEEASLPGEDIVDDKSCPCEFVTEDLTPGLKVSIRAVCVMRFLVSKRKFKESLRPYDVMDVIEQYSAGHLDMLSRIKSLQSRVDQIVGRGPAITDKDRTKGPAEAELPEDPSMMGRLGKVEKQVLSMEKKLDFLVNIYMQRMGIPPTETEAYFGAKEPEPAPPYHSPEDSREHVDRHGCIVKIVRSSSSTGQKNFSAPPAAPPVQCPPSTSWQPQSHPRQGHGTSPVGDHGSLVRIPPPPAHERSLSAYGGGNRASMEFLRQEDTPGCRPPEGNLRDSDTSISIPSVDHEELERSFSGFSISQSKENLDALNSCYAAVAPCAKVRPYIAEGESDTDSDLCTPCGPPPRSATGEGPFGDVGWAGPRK
Procedure: FIG. 8 presents a bar-graph comparing the potentiating effect of 25 μM of Compound NH29 on various KCNQ subunits and mutants, wherein the opener effect is expressed as percent of the control current in the absence of the opener;

Kv 2.1 = biological target: T4, Kv 2.1 (Homo sapiens, UniProt Q14721); experiment: Kv channel selectivity, Xenopus oocytes: Kv2.1; details: 25 μM, +30 mV
T4 construct: expressed in transfected cells; host or cells: Xenopus oocytes
T4 sequence (Q14721 whole entry): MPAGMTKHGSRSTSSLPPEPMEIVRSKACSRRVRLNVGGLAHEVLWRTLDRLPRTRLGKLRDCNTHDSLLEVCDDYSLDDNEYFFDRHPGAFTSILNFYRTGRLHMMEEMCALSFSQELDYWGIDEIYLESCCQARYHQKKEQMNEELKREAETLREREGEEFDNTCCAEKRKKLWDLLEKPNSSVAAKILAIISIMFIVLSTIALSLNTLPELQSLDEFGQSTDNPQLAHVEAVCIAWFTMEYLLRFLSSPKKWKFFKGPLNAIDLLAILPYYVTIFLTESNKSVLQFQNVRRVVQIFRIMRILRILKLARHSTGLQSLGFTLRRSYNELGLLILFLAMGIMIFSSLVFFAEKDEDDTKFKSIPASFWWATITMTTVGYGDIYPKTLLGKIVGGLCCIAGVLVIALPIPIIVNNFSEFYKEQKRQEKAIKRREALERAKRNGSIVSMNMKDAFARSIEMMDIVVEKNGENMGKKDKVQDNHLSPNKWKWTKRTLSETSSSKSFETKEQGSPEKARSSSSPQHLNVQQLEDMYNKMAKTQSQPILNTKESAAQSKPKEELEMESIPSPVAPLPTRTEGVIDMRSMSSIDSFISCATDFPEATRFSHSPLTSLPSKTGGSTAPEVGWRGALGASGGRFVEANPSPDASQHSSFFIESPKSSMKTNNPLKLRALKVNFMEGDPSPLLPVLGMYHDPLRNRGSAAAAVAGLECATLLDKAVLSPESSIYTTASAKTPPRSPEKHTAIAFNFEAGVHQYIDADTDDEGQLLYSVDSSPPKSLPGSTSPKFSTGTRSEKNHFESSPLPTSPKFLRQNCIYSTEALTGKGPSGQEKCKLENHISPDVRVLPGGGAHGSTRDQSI
Procedure: Voltage-clamp measurements in Xenopus oocytes were performed as previously described.
The selectivity of NH29 on other relevant Kv channels expressed in Xenopus oocytes was also studied, and the results are summarized in Table 3 below. The specificity of NH29 at 25 μM and 50 μM towards various Kv channels was tested in Xenopus oocytes, except for Kv1.2 which was checked in transfected CHO cells. The current amplitude of the various Kv channels was tested at the indicated voltages and the effect of the drugs was expressed as fold of the control amplitude measured under the same conditions in the absence of the drug. The data in Table 3 are expressed as mean±SEM of 5-7 separate experiments.

KCNQ2 mutant I209L = biological target: T5, KCNQ2 mutant I209L (Homo sapiens, UniProt O43526, I209L); experiment: KCNQ2 S4 mutant I209L; details: NH29
T5 construct: expressed in transfected cells; host or cells: CHO cells
T5 sequence (O43526 whole entry I209L): as the sequence (O43526 whole entry Y118S) above, with S118Y, I209L counted along it
Text: as §1, §2

[1] = biological target: T6, TRPV1 channels in Dorsal Root Ganglions (DRG) (Rattus norvegicus, UniProt O35433); experiment: TRPV1 currents in DRG neurons activated by capsaicin; details: 5 μM; 0.5 μM capsaicin; reversible
T6 construct: endogenous in cells; host or cells: primary rat dorsal root ganglion neurons
T6 sequence (O35433 whole entry): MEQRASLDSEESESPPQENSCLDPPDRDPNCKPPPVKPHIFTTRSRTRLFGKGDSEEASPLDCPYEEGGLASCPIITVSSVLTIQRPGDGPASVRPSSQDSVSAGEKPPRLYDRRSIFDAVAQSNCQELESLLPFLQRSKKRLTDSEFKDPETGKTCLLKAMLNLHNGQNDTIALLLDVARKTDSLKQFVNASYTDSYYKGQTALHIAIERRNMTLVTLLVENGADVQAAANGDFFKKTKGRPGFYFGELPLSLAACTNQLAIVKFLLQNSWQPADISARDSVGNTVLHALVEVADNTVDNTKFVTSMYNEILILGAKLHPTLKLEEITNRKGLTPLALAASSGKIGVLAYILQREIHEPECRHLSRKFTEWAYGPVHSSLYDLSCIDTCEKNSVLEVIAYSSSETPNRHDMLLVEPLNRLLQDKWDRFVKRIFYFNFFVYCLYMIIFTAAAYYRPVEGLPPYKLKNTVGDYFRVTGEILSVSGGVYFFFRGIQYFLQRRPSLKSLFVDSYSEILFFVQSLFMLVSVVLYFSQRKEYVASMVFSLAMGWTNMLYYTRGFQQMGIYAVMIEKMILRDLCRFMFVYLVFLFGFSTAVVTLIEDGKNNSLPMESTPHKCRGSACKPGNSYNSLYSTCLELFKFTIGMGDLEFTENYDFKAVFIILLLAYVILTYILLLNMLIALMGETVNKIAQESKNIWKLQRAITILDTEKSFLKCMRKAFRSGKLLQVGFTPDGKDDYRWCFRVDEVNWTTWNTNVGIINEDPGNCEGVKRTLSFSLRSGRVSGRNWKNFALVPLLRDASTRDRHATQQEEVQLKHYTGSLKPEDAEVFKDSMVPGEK
Procedure: FIG. 14 presents the inhibitory effect of NH29, an exemplary compound according to some embodiments of the present invention, on TRPV1 channels in Dorsal Root Ganglions (DRG).
For dorsal root ganglion (DRG) neuronal cultures, ganglia were dissected from 2-5 day-old Sprague-Dawley rats killed by decapitation. DRGs were placed in Hank's balanced saline solution (HBSS) and prepared by enzymatic dissociation. Briefly, after 30 minutes incubation in 5 mg/ml dispase, 2 mg/ml collagenase type 1A and 0.1 mg/ml DNase (Invitrogen/Gibco, Carlsbad, Calif.) in Ca^2+ and Mg^2+-free HBSS, the ganglia were mechanically triturated with a fire-polished glass Pasteur pipette. The ganglia were then centrifuged for 5 minutes at 80×g and resuspended in DMEM supplemented with 2 mM L-glutamine, 16.5 mM NaHCO3, 6 g/l glucose, 5 ml penicillin/streptomycin and 10% fetal calf serum.
For electrophysiological recording, dissociated neurons were plated on 13 mm glass coverslips, previously coated with poly-D-lysine (1 mg/ml) and laminin (10 μg/ml) and used at 1-2 days in culture.

wild type KCNQ2 = biological target: T7, wild type KCNQ2 (Homo sapiens, UniProt O43526); experiment: Wild type KCNQ2 (Kv7.2) currents, patch-clamp; details: NH29
T7 construct: expressed in transfected cells; host or cells: CHO cells (printed for the mutants and in the general method)
T7 sequence (O43526 whole entry): as the sequence (O43526 whole entry Y118S) above, with S118Y counted along it
Text: FIGS. 10A-D present the potentiating effect of NH29, an exemplary channel opener compound according to embodiments of the present invention, on wild type KCNQ2 (FIGS. 10A and 10B) and R207W mutant (FIGS. 10C and 10D) channels, as expressed in activation curve measurements, showing that NH29 left-shifts the activation curve (ΔV50) by −15.5 mV and −5.5 mV in the case of the wild-type and the mutant, respectively, and showing that NH29 enhances the current of wild-type and the mutant by about 3.4-fold (at −40 mV) and 1.5-fold (at −20 mV), respectively.
as §2, with “filter. Data were acquired using pClamp 9.2 software (Molecular Devices) and an IBM compatible Pentium IV computer in conjunction with a DigiData 1322A interface (Molecular Devices). The patch pipettes were pulled from borosilicate glass (Warner Instrument Corp, USA) with a resistance of 2-5 MΩ.” for “filter.”

T1 sequence (O43526 whole entry S121A): as the sequence (O43526 whole entry Y118S) above, with S118Y, S121A counted along it

O=C(Cc1cc([N+](=O)[O-])cc([N+](=O)[O-])c1Nc1c(Cl)cc([N+](=O)[O-])cc1Cl)NCCO [NH29]
fold activation of current (KCNQ2 mutant S121A): 2 fold | inhibition of TRPV1 channels (TRPV1 channel; NH29 at 5-50 M as printed): potently inhibited TRPV1 channels | inhibition of TRPV1 current (TRPV1 channel; 50 μM, reversible): almost completely | fold potentiation of current (KCNQ2 mutant Y118S): 2.1 fold | Fold current amplitude (Kv 2.1): 1.2 ± 0.09 fold | sensitivity to the activating effect compared to wild-type Kv7.2 (KCNQ2 mutant I209L): significantly less sensitive | inhibition of TRPV1 current [1]: almost completely | left-shift of the activation curve (ΔV50) (wild type KCNQ2): −15.5 mV
